Source: patent US9708334B2, “Substituted 2,4,5,6-tetrahydropyrrolo[3,4-c]pyrazole and 4,5,6,7-tetrahydro-2H-pyrazolo[4,3-c]pyridine compounds as GlyT1 inhibitors” (DART NEUROSCIENCE (CAYMAN) LTD., priority 2014, dated 2017)

Target: T1, GlyT1 (Homo sapiens, UniProt P48067)
T1 construct: expressed in transfected cells
T1 sequence (P48067 1-706): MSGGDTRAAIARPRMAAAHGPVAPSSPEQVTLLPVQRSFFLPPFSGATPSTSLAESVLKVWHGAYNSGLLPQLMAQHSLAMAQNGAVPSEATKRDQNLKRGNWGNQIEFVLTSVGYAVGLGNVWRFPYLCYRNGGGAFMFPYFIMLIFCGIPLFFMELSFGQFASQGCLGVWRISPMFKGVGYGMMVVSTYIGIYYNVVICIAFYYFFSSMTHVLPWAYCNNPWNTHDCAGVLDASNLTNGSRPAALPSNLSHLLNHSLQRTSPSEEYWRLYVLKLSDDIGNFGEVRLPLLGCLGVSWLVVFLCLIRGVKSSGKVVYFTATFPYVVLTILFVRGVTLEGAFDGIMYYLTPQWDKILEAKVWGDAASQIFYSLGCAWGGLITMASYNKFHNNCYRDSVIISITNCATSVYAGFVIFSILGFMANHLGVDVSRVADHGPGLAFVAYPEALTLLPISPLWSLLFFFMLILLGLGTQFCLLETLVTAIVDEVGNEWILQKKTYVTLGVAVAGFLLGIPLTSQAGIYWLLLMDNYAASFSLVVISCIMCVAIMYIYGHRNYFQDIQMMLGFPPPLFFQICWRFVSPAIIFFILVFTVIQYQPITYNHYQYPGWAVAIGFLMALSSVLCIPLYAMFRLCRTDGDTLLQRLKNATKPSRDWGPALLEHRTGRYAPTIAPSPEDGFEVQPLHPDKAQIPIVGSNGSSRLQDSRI
Test: Glycine Transporter 1 (GlyT1) uptake assay, scintillation proximity assay of [14C]-glycine uptake
Type: cell-based
Details: SPA, four parameter logistic fit, read-out: GlyT1 (pIC50) (converted)
Procedure, shortened: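 IC50 values derive from four-parameter logistic curves fitted to dose-response data. Uptake of [14C]-glycine measured in scintillation proximity format.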

Row | SMILES | IC50 [nM]
1 | CC(Oc1ccc(C#N)c(Cl)c1C(=O)N1CCc2nn(-c3ncc(F)cc3F)cc2C1)C(F)(F)F (stereo not shown) [Example 232, 2-Chloro-3-[2-(3 5-difluoropyridin-2-yl)-2H 4H 5H 6H 7H-pyrazolo[4,3-c]pyridine-5-carbonyl]-4-[(1 1 1-trifluoropropan-2-yl)oxy]benzonitrile] | 100 to 1000
2 | CC(C)c1cc(-n2cc3c(n2)CN(C(=O)c2cc(C#N)ccc2O[C@@H](C)C(F)(F)F)C3)ccn1 [Example 375, 3-{2-[2-(Propan-2-yl)pyridin-4-yl]-2H 4H 5H 6H-pyrrolo[3,4-c]pyrazole-5-carbonyl}-4-{[(2S)-1 1 1-trifluoropropan-2-yl]oxy}benzonitrile] | < 100
3 | COc1c(C#N)ccc(OC(C)C)c1C(=O)N1Cc2cn(-c3cncc(F)c3)nc2C1 [Example 325, 3-[2-(5-Fluoropyridin-3-yl)-2H 4H 5H 6H-pyrrolo[3,4-c]pyrazole-5-carbonyl]-2-methoxy-4-(propan-2-yloxy)benzonitrile] | < 100
4 | Cc1ccc(-n2cc3c(n2)CN(C(=O)c2c(O[C@@H](C)C(F)(F)F)ccc(C#N)c2Cl)C3)cn1 [Example 265, 2-Chloro-3-[2-(6-methylpyridin-3-yl)-2H 4H 5H 6H-pyrrolo[3,4-c]pyrazole-5-carbonyl]-4-{[(2S)-1 1 1-trifluoropropan-2-yl]oxy}benzonitrile] | 100 to 1000
5 | CS(=O)(=O)c1ccc(N2CCC(F)(F)CC2)c(C(=O)N2Cc3cn(-c4cc(Cl)ccc4F)nc3C2)c1 [Example 71, 1-{2-[2-(5-Chloro-2-fluorophenyl)-2H 4H 5H 6H-pyrrolo[3,4-c]pyrazole-5-carbonyl]-4-methanesulfonylphenyl}-4 4-difluoropiperidine] | < 100
6 | Cc1cccc(-n2cc3c(n2)CN(C(=O)c2cc(S(C)(=O)=O)ccc2OC(C)C)C3)c1 [Example 85, 5-[5-Methanesulfonyl-2-(propan-2-yloxy)benzoyl]-2-(3-methylphenyl)-2H 4H 5H 6H-pyrrolo[3,4-c]pyrazole] | < 100
7 | C[C@H](Oc1ccc(S(C)(=O)=O)cc1C(=O)N1Cc2cn(-c3cccc(C(F)(F)F)c3)nc2C1)C(F)(F)F [Example 44, 5-(5-Methanesulfonyl-2-{[(2S)-1 1 1-trifluoropropan-2-yl]oxy}benzoyl)-2-[3-(trifluoromethyl)phenyl]-2H 4H 5H 6H-pyrrolo[3,4-c]pyrazole] | < 100
8 | COc1ncc(F)cc1-n1cc2c(n1)CCN(C(=O)c1c(OC(C)C(F)(F)F)ccc(C#N)c1Cl)C2 (stereo not shown) [Example 230, 2-Chloro-3-[2-(5-fluoro-2-methoxypyridin-3-yl)-2H 4H 5H 6H 7H-pyrazolo[4,3-c]pyridine-5-carbonyl]-4-[(1 1 1-trifluoropropan-2-yl)oxy]benzonitrile] | 100 to 1000
9 | Cc1c(F)ccc(-n2cc3c(n2)CN(C(=O)c2cc(S(C)(=O)=O)ccc2OC(C)C)C3)c1F [Example 61, 2-(2 4-Difluoro-3-methylphenyl)-5-[5-methanesulfonyl-2-(propan-2-yloxy)benzoyl]-2H 4H 5H 6H-pyrrolo[3,4-c]pyrazole] | < 100
10 | CS(=O)(=O)c1ccc(N2CCCCC2)c(C(=O)N2Cc3cn(-c4ccc(F)cn4)nc3C2)c1 [Example 115, 5-Fluoro-2-{5-[5-methanesulfonyl-2-(piperidin-1-yl)benzoyl]-2H 4H 5H 6H-pyrrolo[3,4-c]pyrazol-2-yl}pyridine] | < 100
11 | C[C@H](Oc1ccc(S(C)(=O)=O)cc1C(=O)N1Cc2cn(-c3ccc(F)c(Cl)c3)nc2C1)C(F)(F)F [Example 35, 2-(3-Chloro-4-fluorophenyl)-5-(5-methanesulfonyl-2-{[(2S)-1 1 1-trifluoropropan-2-yl]oxy}benzoyl)-2H 4H 5H 6H-pyrrolo[3,4-c]pyrazole] | < 100
12 | Cc1cc(-n2cc3c(n2)CN(C(=O)c2c(O[C@@H](C)C(F)(F)F)ccc(C#N)c2Cl)C3)ncc1F [Example 304, 2-Chloro-3-[2-(5-fluoro-4-methylpyridin-2-yl)-2H 4H 5H 6H-pyrrolo[3,4-c]pyrazole-5-carbonyl]-4-{[(2S)-1 1 1-trifluoropropan-2-yl]oxy}benzonitrile] | < 100
13 | CC(C)Oc1ccc(C#N)cc1C(=O)N1Cc2cn(-c3ccn4ccnc4c3)nc2C1 [Example 424, 3-(2-{Imidazo[1 2-a]pyridin-7-yl}-2H 4H 5H 6H-pyrrolo[3,4-c]pyrazole-5-carbonyl)-4-(propan-2-yloxy)benzonitrile] | 1000 to 10000
14 | COc1c(C#N)ccc(O[C@@H](C)C(F)(F)F)c1C(=O)N1Cc2cnn(-c3ccc(F)c(C)n3)c2C1 [Example 297, 3-[1-(5-Fluoro-6-methylpyridin-2-yl)-1H 4H 5H 6H-pyrrolo[3,4-c]pyrazole-5-carbonyl]-2-methoxy-4-{[(2S)-1 1 1-trifluoropropan-2-yl]oxy}benzonitrile] | < 100
15 | CC(Oc1ccc(S(C)(=O)=O)cc1C(=O)N1CCc2nn(-c3ccccc3)cc2C1)C(F)(F)F (stereo not shown) [Example 163, 5-{5-Methanesulfonyl-2-[(1 1 1-trifluoropropan-2-yl)oxy]benzoyl}-2-phenyl-2H 4H 5H 6H 7H-pyrazolo[4,3-c]pyridine] | 100 to 1000
16 | Cc1nn(C)c(C)c1-n1cc2c(n1)CN(C(=O)c1c(O[C@@H](C)C(F)(F)F)ccc(C#N)c1Cl)C2 [Example 307, 2-Chloro-4-{[(2S)-1 1 1-trifluoropropan-2-yl]oxy}-3-[2-(trimethyl-1H-pyrazol-4-yl)-2H 4H 5H 6H-pyrrolo[3,4-c]pyrazole-5-carbonyl]benzonitrile] | 100 to 1000
17 | C[C@H](Oc1ccc(S(=O)(=O)CC2CC2)cc1C(=O)N1Cc2cn(-c3ccccc3)nc2C1)C(F)(F)F [Example 144, 5-(5-Cyclopropylmethanesulfonyl-2-{[(2S)-1 1 1-trifluoropropan-2-yl]oxy}benzoyl)-2-phenyl-2H 4H 5H 6H-pyrrolo[3,4-c]pyrazole] | > 10000
18 | C[C@H](Oc1ccc(C#N)cc1C(=O)N1Cc2cnn(C3CCOCC3)c2C1)C(F)(F)F [Example 458, 3-[1-(Oxan-4-yl)-1H 4H 5H 6H-pyrrolo[3,4-c]pyrazole-5-carbonyl]-4-{[(2S)-1 1 1-trifluoropropan-2-yl]oxy}benzonitrile] | > 10000

Other lines, results leading:

Row | IC50 [nM] | SMILES
19 | < 100 | CC(C)COc1ccc(S(C)(=O)=O)cc1C(=O)N1Cc2cn(-c3ccc(F)cc3)nc2C1 [Example 574, 2-(4-Fluorophenyl)-5-[5-methanesulfonyl-2-(2-methylpropoxy)benzoyl]-2H 4H 5H 6H-pyrrolo[3,4-c]pyrazole]
20 | > 10000 | Cc1cccc(-c2ccc(C#N)cc2C(=O)N2Cc3cn(C4CCOCC4)nc3C2)c1 [Example 558, 4-(3-Methylphenyl)-3-[2-(oxan-4-yl)-2H 4H 5H 6H-pyrrolo[3,4-c]pyrazole-5-carbonyl]benzonitrile]
21 | 100 to 1000 | N#Cc1ccc(N2CCC(F)(F)CC2)c(C(=O)N2CCc3nn(-c4ccccc4)cc3C2)c1Cl [Example 502, 2-Chloro-4-(4 4-difluoropiperidin-1-yl)-3-{2-phenyl-2H 4H 5H 6H 7H-pyrazolo[4,3-c]pyridine-5-carbonyl}benzonitrile]
22 | 100 to 1000 | CC1(COc2ccc(C#N)c(Cl)c2C(=O)N2CCc3nn(-c4ccccc4)cc3C2)CC1 [Example 507, 2-Chloro-4-[(1-methylcyclopropyl)methoxy]-3-{2-phenyl-2H 4H 5H 6H 7H-pyrazolo[4,3-c]pyridine-5-carbonyl}benzonitrile]
23 | 100 to 1000 | CC(C)Oc1ccc(C#N)cc1C(=O)N1Cc2cn(-c3ccc(C#N)nc3)nc2C1 [Example 466]
24 | < 100 | CC(C)Oc1ccc(S(C)(=O)=O)cc1C(=O)N1Cc2cn(C3CCC(F)(F)CC3)nc2C1 [Example 470, 2-(4 4-Difluorocyclohexyl)-5-[5-methanesulfonyl-2-(propan-2-yloxy)benzoyl]-2H 4H 5H 6H-pyrrolo[3,4-c]pyrazole]
25 | < 100 | CC(C)Oc1ccc(C#N)cc1C(=O)N1Cc2cn(-c3ccnc(C4CCC4)c3)nc2C1 [Example 459, 3-[2-(2-Cyclobutylpyridin-4-yl)-2H 4H 5H 6H-pyrrolo[3,4-c]pyrazole-5-carbonyl]-4-(propan-2-yloxy)benzonitrile]
26 | < 100 | COc1c(C#N)ccc(C2CCCC2)c1C(=O)N1Cc2cn(-c3cncc(F)c3)nc2C1 [Example 495, 4-Cyclopentyl-3-[2-(5-fluoropyridin-3-yl)-2H 4H 5H 6H-pyrrolo[3,4-c]pyrazole-5-carbonyl]-2-methoxybenzonitrile]
27 | 100 to 1000 | CCc1cc(-n2cc3c(n2)CN(C(=O)c2cc(C#N)ccc2OCC(F)(F)F)C3)ccn1 [Example 543, 3-[2-(2-Ethylpyridin-4-yl)-2H 4H 5H 6H-pyrrolo[3,4-c]pyrazole-5-carbonyl]-4-(2 2 2-trifluoroethoxy)benzonitrile]
28 | < 100 | COc1c(C#N)ccc(OCC2(C)CC2)c1C(=O)N1Cc2cn(-c3ccc(F)cc3)nc2C1 [Example 512, 3-[2-(4-Fluorophenyl)-2H 4H 5H 6H-pyrrolo[3,4-c]pyrazole-5-carbonyl]-2-methoxy-4-[(1-methylcyclopropyl)methoxy]benzonitrile]
